{"source": "paper PMC7567334", "about": "(Environmental Health Perspectives, 2020)", "key": {"AR": {"target": "T1, AR (Rattus norvegicus, UniProt P15207)", "T1 construct": "purchased Invitrogen", "T1 sequence (P15207 651-902 limits assumed)": "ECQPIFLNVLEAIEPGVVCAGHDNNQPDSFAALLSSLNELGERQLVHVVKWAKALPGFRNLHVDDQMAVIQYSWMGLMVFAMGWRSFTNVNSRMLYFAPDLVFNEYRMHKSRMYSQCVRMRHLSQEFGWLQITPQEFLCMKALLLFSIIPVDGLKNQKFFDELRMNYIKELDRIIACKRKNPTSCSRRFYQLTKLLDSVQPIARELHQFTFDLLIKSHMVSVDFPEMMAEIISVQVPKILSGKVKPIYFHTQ", "assay": "PolarScreen AR Competitor binding affinity assay", "conditions": "in words; tested up to 10 μM"}, "hERα-HeLa-9903 cells": {"tested_on": "hERα-HeLa-9903 cells", "assay": "Cell viability (resazurin) in hERα-HeLa-9903 cells"}, "[1]": {"conditions": "ref Schebb et al. 2012, cited from earlier work"}, "AroB transcription": {"tested_on": "AroB transcription", "conditions": "0.25 μM triclocarban added to 1 nM E2; zebrafish embryos; ref Chung et al. 2011; cited from earlier work"}, "TRα and TRβ": {"tested_on": "TRα and TRβ", "assay": "GH3.TRE-Luc TR reporter assay, antagonist setup (0.25 nM T3)", "format": "cell-based, rat"}, "Glucocorticoid receptor": {"tested_on": "Glucocorticoid receptor", "conditions": "ref Kolšek et al. 2014a, cited from earlier work"}, "firefly luciferase": {"target": "T2, firefly luciferase (Photinus pyralis, UniProt P08659)", "T2 construct": "Only implied by 'CP' in the vector name, from my own knowledge; expressed in transfected cells; host or cells: GH3.TRE-Luc cells induced with 0.25 nM T3, lysate", "T2 sequence (P08659 whole entry)": "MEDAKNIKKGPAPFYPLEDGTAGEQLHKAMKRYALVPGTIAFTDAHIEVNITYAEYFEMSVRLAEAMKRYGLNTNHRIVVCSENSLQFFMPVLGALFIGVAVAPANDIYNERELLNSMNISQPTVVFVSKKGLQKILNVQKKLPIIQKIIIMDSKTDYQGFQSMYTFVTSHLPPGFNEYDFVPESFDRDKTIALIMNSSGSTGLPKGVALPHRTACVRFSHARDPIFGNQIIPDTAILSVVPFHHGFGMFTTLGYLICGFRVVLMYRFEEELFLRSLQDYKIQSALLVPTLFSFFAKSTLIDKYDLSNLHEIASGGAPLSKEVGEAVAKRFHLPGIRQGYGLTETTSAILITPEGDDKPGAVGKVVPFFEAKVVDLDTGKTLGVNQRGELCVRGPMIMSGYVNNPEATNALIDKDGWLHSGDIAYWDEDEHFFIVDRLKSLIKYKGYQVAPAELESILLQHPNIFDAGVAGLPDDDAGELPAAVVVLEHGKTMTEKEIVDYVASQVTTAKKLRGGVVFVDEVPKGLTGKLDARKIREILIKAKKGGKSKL", "assay": "Luciferase inhibition assay in GH3.TRE-Luc cell lysates", "format": "biochemical", "conditions": "cell lysate, read-out: inhibition of firefly luciferase luminescence signal", "description": "Serial dilutions for each treatment were prepared in the cell lysate and incubated at room temperature for 30 min."}, "[2]": {"tested_on": "fathead minnow (Pimephales promelas)", "conditions": "exposure to 10 μg/L; ref Ankley et al. 2010; cited from earlier work"}, "human (h)AR": {"target": "T3, human (h)AR (Homo sapiens, UniProt P10275)", "T3 sequence (P10275 1-920)": "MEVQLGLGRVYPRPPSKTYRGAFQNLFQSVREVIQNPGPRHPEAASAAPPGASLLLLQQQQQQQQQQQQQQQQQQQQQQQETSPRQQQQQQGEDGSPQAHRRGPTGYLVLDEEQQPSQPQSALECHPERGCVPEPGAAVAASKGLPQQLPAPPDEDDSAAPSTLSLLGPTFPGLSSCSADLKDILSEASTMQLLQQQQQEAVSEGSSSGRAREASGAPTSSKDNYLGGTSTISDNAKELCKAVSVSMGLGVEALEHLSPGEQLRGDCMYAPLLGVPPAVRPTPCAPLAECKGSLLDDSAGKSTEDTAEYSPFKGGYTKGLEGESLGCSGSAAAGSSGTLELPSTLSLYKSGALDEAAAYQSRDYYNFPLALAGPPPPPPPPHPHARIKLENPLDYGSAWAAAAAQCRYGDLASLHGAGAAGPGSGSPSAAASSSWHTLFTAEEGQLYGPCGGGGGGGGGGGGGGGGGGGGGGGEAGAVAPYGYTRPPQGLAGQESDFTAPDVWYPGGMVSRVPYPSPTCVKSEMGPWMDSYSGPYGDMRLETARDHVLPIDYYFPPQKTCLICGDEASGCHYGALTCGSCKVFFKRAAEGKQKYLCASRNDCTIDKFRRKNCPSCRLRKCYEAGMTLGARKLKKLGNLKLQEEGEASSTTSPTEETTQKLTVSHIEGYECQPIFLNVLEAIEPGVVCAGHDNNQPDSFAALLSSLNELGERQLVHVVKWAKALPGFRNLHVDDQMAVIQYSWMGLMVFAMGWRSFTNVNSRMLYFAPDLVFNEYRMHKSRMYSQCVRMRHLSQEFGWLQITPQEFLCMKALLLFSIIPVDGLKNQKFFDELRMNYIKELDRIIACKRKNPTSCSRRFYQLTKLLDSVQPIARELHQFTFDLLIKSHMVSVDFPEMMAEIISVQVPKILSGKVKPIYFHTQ", "assay": "AR-EcoScreen hAR transcriptional activation assay, agonist setup", "format": "cell-based"}, "GR": {"target": "T4, GR (Homo sapiens, UniProt P04150)", "T4 sequence (P04150 1-777)": "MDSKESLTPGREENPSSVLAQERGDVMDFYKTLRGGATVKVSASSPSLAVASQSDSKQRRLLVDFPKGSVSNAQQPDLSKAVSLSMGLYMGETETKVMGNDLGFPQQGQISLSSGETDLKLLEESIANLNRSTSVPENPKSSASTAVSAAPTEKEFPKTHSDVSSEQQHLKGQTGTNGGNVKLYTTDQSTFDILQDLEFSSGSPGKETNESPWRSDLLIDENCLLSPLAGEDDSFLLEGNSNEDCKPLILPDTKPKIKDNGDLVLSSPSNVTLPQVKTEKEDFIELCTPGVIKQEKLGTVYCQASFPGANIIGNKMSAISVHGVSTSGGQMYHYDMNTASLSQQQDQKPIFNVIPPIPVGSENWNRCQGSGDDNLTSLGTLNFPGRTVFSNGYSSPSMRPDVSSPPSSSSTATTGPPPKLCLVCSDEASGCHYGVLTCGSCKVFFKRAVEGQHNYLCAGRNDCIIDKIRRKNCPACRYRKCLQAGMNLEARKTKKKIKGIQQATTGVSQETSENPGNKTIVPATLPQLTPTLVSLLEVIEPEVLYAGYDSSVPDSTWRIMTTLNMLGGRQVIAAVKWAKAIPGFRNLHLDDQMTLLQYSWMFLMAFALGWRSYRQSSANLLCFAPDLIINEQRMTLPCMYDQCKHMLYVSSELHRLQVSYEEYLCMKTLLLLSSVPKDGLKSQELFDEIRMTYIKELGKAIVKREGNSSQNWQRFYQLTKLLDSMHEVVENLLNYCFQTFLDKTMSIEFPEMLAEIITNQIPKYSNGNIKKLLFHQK", "assay": "MDA-kb2 GR reporter assay, agonist setup (with FLU)", "format": "cell-based", "parameters": "constitutively expressed high levels of functional GR and AR; host or cells: MDA-kb2", "conditions": "MDA-kb2"}}, "note": "“Also recorded” adds a separate entry of the source."}
{"smiles": "O=C(Nc1ccc(Cl)cc1)Nc1ccc(Cl)c(Cl)c1", "note": "[Triclocarban, 1-(4-Chlorophenyl)-3-(3,4-dichlorophenyl) urea]", "values": [{"measurement": "binding affinity assay on isolated AR, result", "setting": "AR", "value": "did not show binding; also recorded: No binding; also recorded: negative"}, {"measurement": "highest noncytotoxic concentration", "setting": "hERα-HeLa-9903 cells; hERα-HeLa-9903", "value": 5, "unit": "µM"}, {"measurement": "highest tested concentration as limited by precipitation and cytotoxicity", "setting": "hERα-HeLa-9903 cells; hERα-HeLa-9903, ERα agonist dose-response", "value": 5, "unit": "µM"}, {"measurement": "time of plasma peak after exposure", "setting": "[1]", "value": "≤ 48", "unit": "h"}, {"measurement": "peak plasma concentration", "setting": "[1]; six healthy volunteers, triclocarban-containing soaps", "value": "23 to 530", "unit": "nM"}, {"measurement": "increase in AroB transcription", "setting": "AroB transcription", "value": 18, "unit": "fold"}, {"measurement": "lower TR RTA than spike-in control", "setting": "TRα and TRβ; 1 μM, vs 0.1% DMSO with 0.25 nM T3", "value": 44.3, "unit": "%"}, {"measurement": "TR antagonist activity, call", "setting": "TRα and TRβ; GH3.TRE-Luc", "value": "Antagonist"}, {"measurement": "concentration with TR antagonist activity", "setting": "TRα and TRβ; GH3.TRE-Luc", "value": 1, "unit": "µM"}, {"measurement": "effect on GR with HC", "setting": "Glucocorticoid receptor; MDA-kb2 cells", "value": "Enhancer of HC activity in MDA-kb2 cells ([Kolšek et al. 2014a])"}, {"measurement": "concentration with enhanced HC activity on GR", "setting": "Glucocorticoid receptor", "value": 2, "unit": "µM"}, {"measurement": "inhibition at 50 µM", "setting": "firefly luciferase", "value": 46.7, "unit": "%"}, {"measurement": "effect in fathead minnow", "setting": "[2]", "value": "increased masculinization"}, {"measurement": "higher AR RTA than vehicle control", "setting": "human (h)AR; 1 μM, vs 0.1% DMSO", "value": 40.4, "unit": "%"}, {"measurement": "higher AR RTA over vehicle control", "setting": "human (h)AR; 2.5 μM, vs 0.1% DMSO", "value": 30.3, "unit": "%"}, {"measurement": "AR agonist activity, call", "setting": "human (h)AR; AR-EcoScreen", "value": "Agonist"}, {"measurement": "concentration with AR agonist activity", "setting": "human (h)AR; AR-EcoScreen", "value": "1 to 2.5", "unit": "µM"}, {"measurement": "GR agonist activity", "setting": "GR", "value": "no GR agonist activity"}]}
